Assay results taken from ChEMBL document CHEMBL1201862, “PubChem BioAssay data set” (2004).
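Each compound was tested at five concentrations against cells in 96-well plates for 48 hours. The concentration for 50% growth inhibition is given as GI50.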 Activity calls are given as the source filed them. Rule as the data show it: active = GI50 up to about 1.1 µM and inactive = higher.

Experiments:
Test in all cases: NCI-60 cell line screen, 48 h
MOLT-4 = system: MOLT-4
RPMI-8226 = system: RPMI-8226
Hs-578T = system: Hs-578T
KM12 = system: KM12
OVCAR-8 = system: OVCAR-8
MDA-MB-231 = system: MDA-MB-231
NCI-H23 = system: NCI-H23
A549 = system: A549
SW-620 = system: SW-620
SK-MEL-28 = system: SK-MEL-28
DU-145 = system: DU-145
NCI/ADR-RES = system: NCI/ADR-RES
A498 = system: A498
UACC-62 = system: UACC-62
UO-31 = system: UO-31
HCT-15 = system: HCT-15
COLO 205 = system: COLO 205
HCC 2998 = system: HCC 2998
SF-539 = system: SF-539

Structure (SMILES): COc1cc2oc(=O)cc(C)c2c(OC)c1OC
- GI50 (MOLT-4): > 100 µM (inactive)
- GI50 (RPMI-8226): > 100 µM (inactive)
- GI50 (Hs-578T): > 100 µM (inactive)
- GI50 (KM12): > 100 µM (inactive)
- GI50 (OVCAR-8): > 100 µM (inactive)
- GI50 (MDA-MB-231): > 100 µM (inactive)
- GI50 (NCI-H23): > 100 µM (inactive)
- GI50 (A549): > 100 µM (inactive)
- GI50 (SW-620): > 100 µM (inactive)
- GI50 (SK-MEL-28): > 100 µM (inactive)
- GI50 (DU-145): > 100 µM (inactive)
- GI50 (NCI/ADR-RES): > 100 µM (inactive)
- GI50 (A498): 30.8 µM (inactive)
- GI50 (UACC-62): > 100 µM (inactive)
- GI50 (UO-31): 38.7 µM (inactive)
- GI50 (HCT-15): > 100 µM
- GI50 (COLO 205): > 100 µM (inactive)

Structure (SMILES): COC(=O)C1C(=O)N(C)C(=O)N2CCCC12 (configuration not stated)
- GI50 (MOLT-4): > 100 µM (inactive)
- GI50 (RPMI-8226): > 100 µM (inactive)
- GI50 (Hs-578T): > 100 µM (inactive)
- GI50 (KM12): > 100 µM (inactive)
- GI50 (OVCAR-8): > 100 µM (inactive)
- GI50 (HCC 2998): > 100 µM (inactive)
- GI50 (MDA-MB-231): > 100 µM (inactive)
- GI50 (NCI-H23): > 100 µM (inactive)
- GI50 (A549): > 100 µM (inactive)
- GI50 (SW-620): > 100 µM (inactive)
- GI50 (SK-MEL-28): 1.4 µM (inactive)
- GI50 (DU-145): > 100 µM (inactive)
- GI50 (NCI/ADR-RES): > 100 µM (inactive)
- GI50 (A498): > 100 µM (inactive)
- GI50 (UACC-62): > 100 µM (inactive)
- GI50 (SF-539): > 100 µM (inactive)
- GI50 (UO-31): > 100 µM (inactive)
- GI50 (HCT-15): > 100 µM
- GI50 (COLO 205): > 100 µM (inactive)

Structure (SMILES): COc1ncnc2c(NC3OC(CO)C(O)C3O)ncnc12 (configuration not stated)
- GI50 (MOLT-4): 0.0471 µM (active)
- GI50 (RPMI-8226): 0.371 µM (active)
- GI50 (Hs-578T): 1.03 µM (active)
- GI50 (KM12): 0.458 µM (active)
- GI50 (OVCAR-8): 0.329 µM (active)
- GI50 (HCC 2998): 1.26 µM (inactive)
- GI50 (MDA-MB-231): 0.149 µM (active)
- GI50 (NCI-H23): 0.24 µM (active)
- GI50 (A549): 0.131 µM (active)
- GI50 (SW-620): 0.238 µM (active)
- GI50 (SK-MEL-28): 6.89 µM (inactive)
- GI50 (DU-145): 0.407 µM (active)
- GI50 (NCI/ADR-RES): 0.417 µM (active)
- GI50 (A498): 0.411 µM (active)
- GI50 (UACC-62): 0.299 µM (active)
- GI50 (SF-539): 0.246 µM (active)
- GI50 (UO-31): 0.984 µM (active)
- GI50 (HCT-15): 0.179 µM
- GI50 (COLO 205): 0.307 µM (active)

Structure (SMILES): CC(=O)/C=C1/C(=O)C(CC(C)C)=C1CC(C)C
- GI50 (MOLT-4): 92.3 µM (inactive)
- GI50 (Hs-578T): > 100 µM (inactive)
- GI50 (KM12): > 100 µM (inactive)
- GI50 (OVCAR-8): > 100 µM (inactive)
- GI50 (MDA-MB-231): > 100 µM (inactive)
- GI50 (NCI-H23): > 100 µM (inactive)
- GI50 (A549): > 100 µM (inactive)
- GI50 (SW-620): > 100 µM (inactive)
- GI50 (SK-MEL-28): > 100 µM (inactive)
- GI50 (DU-145): > 100 µM (inactive)
- GI50 (NCI/ADR-RES): > 100 µM (inactive)
- GI50 (A498): > 100 µM (inactive)
- GI50 (UACC-62): > 100 µM (inactive)
- GI50 (SF-539): > 100 µM (inactive)
- GI50 (UO-31): > 100 µM (inactive)
- GI50 (HCT-15): > 100 µM
- GI50 (COLO 205): > 100 µM (inactive)
